Assay [1] deals with MCF7. In words: PROTAC activity at E3-ubiquitin ligase/ER-alpha expressed in human MCF7 cells assessed as decrease in ER-alpha protein level by measuring […] at 0.03 uM incubated for 24 hrs by Western blotting analysis (reference value: 100%). In kind it is cell-based. Set-up: scale not given: the % may be the effect or the level left. (In western blotting, separated proteins are transferred to a membrane and probed.)

Assay [2] has as its system MCF7. In words: PROTAC activity at E3-ubiquitin ligase/ER-alpha expressed in human MCF7 cells assessed as decrease in ER-alpha protein level by measuring […] at 0.1 uM incubated for 24 hrs by Western blotting analysis (reference value: 100%). More on the design: scale not given: the % may be the effect or the level left. The assay is classed as cell-based.

Assay [3] deals with MCF7. In words: PROTAC activity at E3-ubiquitin ligase/ER-alpha expressed in human MCF7 cells assessed as decrease in ER-alpha protein level by measuring […] at 0.3 uM incubated for 24 hrs by Western blotting analysis (reference value: 100%). In kind it is cell-based. More on the design: scale not given: the % may be the effect or the level left.
Assay [4] relates to MCF7. Kind of assay: PROTAC activity at E3-ubiquitin ligase/ER-alpha expressed in human MCF7 cells assessed as decrease in ER-alpha protein level by measuring […] at 1 uM incubated for 24 hrs by Western blotting analysis (reference value: 100%). More on the design: scale not given: the % may be the effect or the level left. In kind it is cell-based.

Assay [5] concerns MCF7. Kind of assay: PROTAC activity at E3-ubiquitin ligase/ER-alpha expressed in human MCF7 cells assessed as decrease in ER-alpha protein level by measuring […] at 3 uM incubated for 24 hrs by Western blotting analysis(reference value: 100%). More on the design: scale not given: the % may be the effect or the level left. The assay is classed as cell-based.

Assay [6] has as its system MCF7. In words: PROTAC activity at E3-ubiquitin ligase/ER-alpha expressed in human MCF7 cells assessed as decrease in ER-alpha protein level by measuring […] at 10 uM incubated for 24 hrs by Western blotting analysis (reference value: 100%). The assay is classed as cell-based. Set-up: scale not given: the % may be the effect or the level left.

In assay [7] the test system is MCF7. Kind of assay: PROTAC activity at E3-ubiquitin ligase/ER-alpha expressed in human MCF7 cells assessed as decrease in ER-alpha protein level by measuring […] at 30 uM incubated for 24 hrs by Western blotting analysis (reference value: 100%). In kind it is cell-based. More on the design: scale not given: the % may be the effect or the level left.

In assay [8] the test system is MCF7. Kind of assay: PROTAC activity at E3-ubiquitin ligase/ER-alpha expressed in human MCF7 cells assessed as decrease in ER-alpha protein level by measuring […] at 100 uM incubated for 24 hrs by Western blotting analysis (reference value: 100%). The assay is classed as cell-based. Set-up: scale not given: the % may be the effect or the level left.

In assay [9] the test system is MCF7. In words: PROTAC activity at E3-ubiquitin ligase/ER-alpha expressed in human MCF7 cells assessed as induction of ER-alpha degradation incubated for 24 hrs in presence of MG132 by measuring ER-alpha to beta actin ratio at 30 uM by Western blotting analysis (reference value: 100%). The assay is classed as cell-based.
The subject of assay [10] is MCF7. In words: PROTAC activity at E3-ubiquitin ligase/ER-alpha expressed in human MCF7 cells assessed as induction of ER-alpha degradation incubated for 24 hrs in presence of MG132 by measuring ER-alpha to beta actin ratio at 100 uM by Western blotting analysis (reference value: 100%). The assay is classed as cell-based.
For assay [11], the system named is MCF7. Kind of assay: PROTAC activity at E3-ubiquitin ligase/ER-alpha expressed in human MCF7 cells assessed as induction of ER-alpha degradation incubated for 24 hrs in presence of MLN7243 by measuring ER-alpha to beta actin ratio at 30 uM by Western blotting analysis (reference value: 100%). The assay is classed as cell-based.
For assay [12], the system named is MCF7. In words: PROTAC activity at E3-ubiquitin ligase/ER-alpha expressed in human MCF7 cells assessed as induction of ER-alpha degradation incubated for 24 hrs in presence of MLN7243 by measuring ER-alpha to beta actin ratio at 100 uM by Western blotting analysis (reference value: 100%). The assay is classed as cell-based.
For assay [13], the system named is MCF7. In words: PROTAC activity at E3-ubiquitin ligase/ER-alpha expressed in UBR1 knockdown human MCF7 cells assessed as induction of ER-alpha degradation by measuring ER-alpha to beta actin ratio at 30 uM incubated for 24 hrs by Western blotting analysis (reference value: 100%). The assay is classed as cell-based.
Assay [14] concerns MCF7. In words: PROTAC activity at E3-ubiquitin ligase/ER-alpha expressed in UBR1 knockdown human MCF7 cells assessed as induction of ER-alpha degradation by measuring ER-alpha to beta actin ratio at 100 uM incubated for 24 hrs by Western blotting analysis (reference value: 100%). In kind it is cell-based.
For assay [15], the system named is MCF7. In words: PROTAC activity at E3-ubiquitin ligase/ER-alpha expressed in UBR2 knockdown human MCF7 cells assessed as induction of ER-alpha degradation by measuring ER-alpha to beta actin ratio at 30 uM incubated for 24 hrs by Western blotting analysis (reference value: 100%). The assay is classed as cell-based.
Assay [16] relates to MCF7. In words: PROTAC activity at E3-ubiquitin ligase/ER-alpha expressed in UBR2 knockdown human MCF7 cells assessed as induction of ER-alpha degradation by measuring ER-alpha to beta actin ratio at 100 uM incubated for 24 hrs by Western blotting analysis (reference value: 100%). In kind it is cell-based.
The test system of assay [17] is MCF7. In words: PROTAC activity at E3-ubiquitin ligase/ER-alpha expressed in UBR4 knockdown human MCF7 cells assessed as induction of ER-alpha degradation by measuring ER-alpha to beta actin ratio at 30 uM incubated for 24 hrs by Western blotting analysis (reference value: 16%). In kind it is cell-based.
Assay [18] deals with MCF7. In words: PROTAC activity at E3-ubiquitin ligase/ER-alpha expressed in UBR4 knockdown human MCF7 cells assessed as induction of ER-alpha degradation by measuring ER-alpha to beta actin ratio at 100 uM incubated for 24 hrs by Western blotting analysis (reference value: 41%). In kind it is cell-based.
For assay [19], the system named is MCF7. Kind of assay: PROTAC activity at E3-ubiquitin ligase/ER-alpha expressed in UBR5 knockdown human MCF7 cells assessed as induction of ER-alpha degradation by measuring ER-alpha to beta actin ratio at 30 uM incubated for 24 hrs by Western blotting analysis (reference value: 16%). In kind it is cell-based.
Assay [20] deals with MCF7. In words: PROTAC activity at E3-ubiquitin ligase/ER-alpha expressed in UBR5 knockdown human MCF7 cells assessed as induction of ER-alpha degradation by measuring ER-alpha to beta actin ratio at 100 uM incubated for 24 hrs by Western blotting analysis (reference value: 41%). The assay is classed as cell-based.
For assay [21], the system named is MCF7. In words: PROTAC activity at E3-ubiquitin ligase/ER-alpha expressed in human MCF7 cells assessed as decrease in ER-alpha protein level by measuring ER-alpha to beta actin ratio at 30 uM incubated for 24 hrs Western blotting analysis (reference value: 100%). In kind it is cell-based. Set-up: scale not given: the % may be the effect or the level left.
For assay [22], the system named is MCF7. Kind of assay: Antiproliferative activity against human MCF7 cells assessed as inhibition of cell viability. In kind it is functional, cell-based. Conditions: dose 1-100 µM.
Assay [23] has as its system MCF7. Kind of assay: PROTAC activity at E3-ubiquitin ligase/ER-alpha expressed in human MCF7 cells assessed as induction of ER-alpha degradation incubated for 24 hrs by measuring ER-alpha to beta actin ratio at 30 uM by Western blotting analysis (reference value: 100%). The assay is classed as cell-based.
The subject of assay [24] is MCF7. Kind of assay: PROTAC activity at E3-ubiquitin ligase/ER-alpha expressed in human MCF7 cells assessed as induction of ER-alpha degradation incubated for 24 hrs by measuring ER-alpha to beta actin ratio at 100 uM by Western blotting analysis (reference value: 100%). The assay is classed as cell-based.
In assay [25] the test system is MCF7. Kind of assay: PROTAC activity at E3-ubiquitin ligase/ER-alpha expressed in human MCF7 cells assessed as induction of ER-alpha degradation by measuring ER-alpha to beta actin ratio at 30 uM incubated for 24 hrs by Western blotting analysis (reference value: 100%). In kind it is cell-based.
For assay [26], the system named is MCF7. In words: PROTAC activity at E3-ubiquitin ligase/ER-alpha expressed in human MCF7 cells assessed as induction of ER-alpha degradation by measuring ER-alpha to beta actin ratio at 100 uM incubated for 24 hrs by Western blotting analysis (reference value: 100%). In kind it is cell-based.
For assay [27], the system named is MCF7. In words: Induction of ER-alpha degradation (unknown origin) at 30 uM by measuring ER-alpha to beta actin ratio incubated for 24 hrs Western blotting analysis (reference value: 100%). Conditions: Homo sapiens. In kind it is cell-based.
Assay [28] has as its system HEK293. In words: PROTAC activity at E3-ubiquitin ligase/Halo-tagged Brazilian click beetle Emerald luciferase expressed in human HEK293 cells assessed as decrease in Halo-ELuc protein level by measuring Halo-Eluc to beta-actin ratio at 0.01 uM incubated for 24 hrs by luciferase based Western blotting analysis (reference value: 100%). In kind it is cell-based. Set-up: scale not given: the % may be the effect or the level left.

Assay [29] deals with HEK293. Kind of assay: PROTAC activity at E3-ubiquitin ligase/Halo-tagged Brazilian click beetle Emerald luciferase expressed in human HEK293 cells assessed as decrease in Halo-ELuc protein level by measuring Halo-Eluc to beta-actin ratio at 0.1 uM incubated for 24 hrs by luciferase based Western blotting analysis (reference value: 100%). In kind it is cell-based. More on the design: scale not given: the % may be the effect or the level left.

Assay [30] deals with HEK293. Kind of assay: PROTAC activity at E3-ubiquitin ligase/Halo-tagged Brazilian click beetle Emerald luciferase expressed in human HEK293 cells assessed as decrease in Halo-ELuc protein level by measuring Halo-Eluc to beta-actin ratio at 1 uM incubated for 24 hrs by luciferase based Western blotting analysis (reference value: 100%). The assay is classed as cell-based. More on the design: scale not given: the % may be the effect or the level left.

The subject of assay [31] is HEK293. Kind of assay: PROTAC activity at E3-ubiquitin ligase/Halo-tagged Brazilian click beetle Emerald luciferase expressed in human HEK293 cells assessed as decrease in Halo-ELuc protein level by measuring Halo-Eluc to beta-actin ratio at 10 uM incubated for 24 hrs by luciferase based Western blotting analysis (reference value: 100%). More on the design: scale not given: the % may be the effect or the level left. In kind it is cell-based.

In assay [32] the test system is HEK293. Kind of assay: PROTAC activity at E3-ubiquitin ligase/Halo-tagged Brazilian click beetle Emerald luciferase expressed in human HEK293 cells assessed as decrease in Halo-ELuc protein level by measuring Halo-Eluc to beta-actin ratio at 20 uM incubated for 24 hrs by luciferase based Western blotting analysis (reference value: 100%). The assay is classed as cell-based. Set-up: scale not given: the % may be the effect or the level left.

Assay [33] relates to HEK293. Kind of assay: PROTAC activity at E3-ubiquitin ligase/Halo-tagged Brazilian click beetle Emerald luciferase expressed in human HEK293 cells assessed as decrease in Halo-ELuc protein level pretreated with 1-chlorohexane for 2 hrs followed by compound addition and measured after 24 hrs by competitive assay. In kind it is cell-based.
Assay [34] has as its system HEK293. In words: PROTAC activity at E3-ubiquitin ligase/Halo-tagged Brazilian click beetle Emerald luciferase expressed in human HEK293 cells assessed as decrease in Halo-ELuc protein level pretreated with compound followed by 1-chlorohexane addition and measured after 24 hrs by competitive assay. The assay is classed as cell-based.
For assay [35], the system named is MCF7. In words: Induction of ER-alpha degradation (unknown origin) at 30 uM in presence of 4-OHT by measuring ER-alpha to beta actin ratio incubated for 24 hrs Western blotting analysis (reference value: 100%). In kind it is cell-based. Conditions: Homo sapiens.

The source made the active and inactive calls. The calls are words filed in the database; no cut-off is given here.

This passage reports Activity results from ChEMBL document CHEMBL6153165, “Clozapine as an E3 Ligand for PROTAC Technology” (ACS Med Chem Lett, 2025).

As to `CC/C(=C(/c1ccc(O)cc1)c1ccc(OCCN(C)C(=O)CCC(=O)NCCOCCOCCOCCN2CCN(C3=Nc4cc(Cl)ccc4Nc4ccccc43)CC2)cc1)c1ccccc1`, the Activity stood at 122% in the assay on MCF7 [1]; 132% in the assay on MCF7 [2]; 148% in the assay with MCF7 [3]; 160% in the assay on MCF7 [4]; 160% in the assay on MCF7 [5]; 116% in the assay on MCF7 [6]. Further, the Activity in the assay with MCF7 [7] stood at 42%; in the assay with MCF7 [8], 33%; in the assay on MCF7 [9], 163%; in the assay with MCF7 [10] it was 152%; in the assay with MCF7 [11], 121%; with MCF7 [12], 104%. Also, the Activity in the assay on MCF7 [13] worked out at 14%; with MCF7 [14] it was 28%; in the assay on MCF7 [15] it was 27%; with MCF7 [16] it was 40%; in the assay with MCF7 [17], 1%; with MCF7 [18] it was 21%. Also, the Activity is 45% with MCF7 [19]; 51% in the assay on MCF7 [20]; 37% with MCF7 [21]; “Dose-dependent-effect” with MCF7 [22]; 51% with MCF7 [23]; 27% in the assay with MCF7 [24]. Further, the values for the Activity in the assay with MCF7 [25] and in the assay on MCF7 [26] were 16% and 41%, respectively.
On to `CC/C(=C(\c1ccc(O)cc1)c1ccc(OCCN(C)C)cc1)c1ccccc1`, for which the Activity in the assay on MCF7 [27] worked out at 116%.
With `ClCCCCCCOCCOCCN1CCN(C2=Nc3cc(Cl)ccc3Nc3ccccc32)CC1`, the Activity in the assay with HEK293 [28] is 103%; in the assay with HEK293 [29] it was 97%; in the assay with HEK293 [30] it was 57%; with HEK293 [31], 32%; with HEK293 [32], 22%; in the assay with HEK293 [34] it was “Not active; Complete Recovery Of Luminescence Not Observed”. For the same compound, the result in the assay on HEK293 [33] was inactive.
For the compound `CN1CCN(C2=Nc3cc(Cl)ccc3Nc3ccccc32)CC1`, the Activity in the assay with MCF7 [27] worked out at 104%; in the assay with MCF7 [35], 91%.
